How the values were obtained:
GST-ΔPH-Akt1 = biological target: T1, GST-ΔPH-Akt1 (Homo sapiens, UniProt P31749); test: Biochemical ΔPH Akt1 assay (flashplate, 33P incorporation into histone 2B); settings: 100 nM ATP, histone 2B substrate; read-out: ΔPHAkt1 inhibition: IC50
T1 construct: named GST-deltaPH-Akt1; 107-480aa; cloned in the pAcGl vector; GST (N); made in house; host or cells: SF9 insect cells (baculovirus vector pAcG1), co-expressed with PDK1
From the text: For the biochemical assay ΔPHAkt1 is used devoid of its PH domain as a GST fusion protein (named GST-deltaPH-Akt1; 107-480aa; cloned in the pAcGl vector (BD Biosciences Pharmingen)), co-expressed with PDK1 in SF9 insect cells. The protein is purified using glutathion-affinity chromatography by standard protocols.
In order to study the inhibition of Akt according to the invention, a flashplate-based assay has been developed.
The Akt1 assay is a biochemical assay using Akt1 devoid of its PH domain and co-expressed with PDK1 in insect cells. The GST-ΔPH-Akt1 assay is run in 96 well plates by incubating 100 ng/well GST-ΔPH-Akt1, 100 ng/well histone 2B (Roche, #223514) as substrate, 10 μl of compound of invention (test compounds were dissolved as 10 mM solutions in dimethylsulfoxide (DMSO) and subsequently diluted) and 100 nM ATP (including ^33P-ATP) in 100 μl of reaction buffer ([…], pH7,5; 3 mM MgCl2; 3 mM MnCl2; 3 μM Na-Orthovanadat; 1 mM DTT; 1 μg/ml PEG8000) for 80 minutes at 30° C. The reactions are terminated by adding 100 μl stopping buffer (2% H3PO4 for 5 minutes) and are washed 3 times by using washing buffer (0.9% NaCl). Relying on the incorporation of ^33P into the protein substrate histone 2B, the detection is based on the adhesion of the phosphorylated protein to the surface of scintillator-coated flash plates (NEN, USA; #SMP-200). This phosphorylation is measured by counting the plate for 60 sec. using a plate reader (Wallac Microbeta; Perkin Elmer, USA).

PKA = biological target: T2, PKA (Homo sapiens, UniProt P17612); test: Biochemical PKA assay (flashplate); settings: 100 nM ATP; read-out: PKA inhibition: −log IC50 (converted)
T2 construct: His; purchased PanVera, USA #R3791; host or cells: E. coli
Description: For the biochemical PKA assay the catalytic subunit of PKA is expressed in E. coli as a His-tagged human recombinant protein and purified accordingly (PanVera, USA; #R3791).
In order to study the kinase inhibition activity of the compounds according to the invention, a flashplate-based assay has been developed for the serine/threonine kinase, PKA. The assay is run in 96 well plates by incubating 1 ng/well His-PKA (PanVera, USA; #R3791), 0.5 μM/well PKA peptide (#12-394; Upstate, USA) as substrate, 10 μl of compound of invention (test compounds were dissolved as 10 mM solutions in dimethylsulfoxide (DMSO) and subsequently diluted) and 100 nM ATP (including ^33P-ATP) in 100 μl of reaction buffer ([…], pH7,5; 3 mM MgCl2; 3 mM MnCl2; 3 μM Na-Orthovanadat; 1 mM DTT) for 80 minutes at 22° C. The reactions are stopped by adding 100 μl stopping buffer (2% H3PO4 for 5 minutes) and are washed 3 times by using washing buffer (200 μl 1×PBS). Relying on the incorporation of ^33P into the peptide substrate, the detection is based on the adhesion of the phosphorylated peptide to the surface of scintillator-coated Flash plates (Perkin Elmer, USA; #SMP-103). This phosphorylation is measured by counting the plate for 60 sec. using a plate reader (Wallac Microbeta; Perkin Elmer, USA). By using this method the IC50 of the PKA inhibition is determined.

MCF7 cells = test: Cellular proliferation/cytotoxicity assay (Alamar Blue), MCF7; settings: Homo sapiens, MCF7, 48 h, read-out: Anti-proliferative/cytotoxic activity: IC50 MCF7
Description: (§1) The anti-proliferative activity of the compounds as described herein, is evaluated using MCF7 and MDA-MB-468 (ATCC HTB-22 and HTB-132) cell lines and the Alamar Blue (Resazurin) cell viability assay (O'Brien et al. Eur J Biochem 267, 5421-5426, 2000). Resazurin is reduced to the fluorescent resorufin by cellular dehydrogenase activity, correlating with viable, proliferating cells. Test compounds are dissolved as 10 mM solutions in DMSO and subsequently diluted. MCF7 or MDA-MB-434 cells were seeded into 96 well flat bottom plates at a density of 10000 cells/well (MCF7) or 5000 cells/well (MDA-MB-468) in a volume of 200 μl/well. 24 hours after seeding, 1 μl each of the compound dilutions are added into each well of the 96 well plates. Each compound dilution is tested as at least as duplicates. Wells containing untreated control cells were filled with 200 μl DMEM containing 0.5% v:v DMSO. The cells are then incubated with the substances for 48 hours at 37° C. in a humidified atmosphere containing 5% carbon dioxide. To determine cell viability, 20 μl of a Resazurin solution (Sigma; 90 mg/l) are added. After 4 hours incubation at 37° C. the fluorescence is measured at an extinction of 544 nm and an emission of 590 nm (Wallac Victor2; Perkin Elmer, USA). For the calculation of the cell viability the emission value from untreated cells is set as 100% viability and the emission rates of treated cells are set in relation to the values of untreated cells. Viabilities are expressed as % values. The corresponding IC50 values of the compounds for cytotoxic activity are determined from the concentration-effect curves by means of non-linear regression. The analysis of the data is performed using a biostatistical program (GraphPad Prism, USA).

MDA-MB-468 cells = test: Cellular proliferation/cytotoxicity assay (Alamar Blue), MDA-MB-468; settings: Homo sapiens, MDA-MB-468, 48 h, read-out: Anti-proliferative/cytotoxic activity: IC50 MDA468
Description: as §1

T1 sequence (P31749 107-480, stated change not applied): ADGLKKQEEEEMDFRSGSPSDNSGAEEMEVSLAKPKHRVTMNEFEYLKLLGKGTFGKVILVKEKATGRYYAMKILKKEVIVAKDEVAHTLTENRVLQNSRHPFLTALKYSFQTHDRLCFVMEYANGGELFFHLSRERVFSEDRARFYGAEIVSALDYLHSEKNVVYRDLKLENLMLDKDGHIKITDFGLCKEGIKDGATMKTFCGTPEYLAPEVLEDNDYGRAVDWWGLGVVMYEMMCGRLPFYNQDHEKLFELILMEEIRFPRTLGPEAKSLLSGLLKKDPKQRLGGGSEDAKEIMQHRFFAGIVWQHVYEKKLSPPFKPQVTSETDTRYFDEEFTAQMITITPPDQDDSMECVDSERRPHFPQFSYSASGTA

| IC50 (GST-ΔPH-Akt1) [µM] | IC50 (PKA) [µM] | SMILES | IC50 (MCF7 cells) [µM] | IC50 (MDA-MB-468 cells) [µM] |
| --- | --- | --- | --- | --- |
| ≤ 1.75 | 6.31 to 100 | NCc1ccc(C(=O)Nc2ccc(Nc3nc(-c4ccc(-c5ccc(F)cc5)cc4)cc4ccnn34)cc2)cc1 [Example 67, 4-Aminomethyl-N-{4-[5-(4′-fluoro-biphenyl-4-yl)-pyrazolo[1,5-c]pyrimidin-7-ylamino]-phenyl}-benzamide] | ≤ 16.9 | ≤ 13.6 |
| ≤ 1.75 | 6.31 to 100 | NCc1ccc(C(=O)Nc2ccc(Nc3nc(-c4ccc(I)cc4)cc4ccnn34)cc2)cc1 [Example 68, 4-Aminomethyl-N-{4-[5-(4-iodo-phenyl)-pyrazolo[1,5-c]pyrimidin-7-ylamino]-phenyl}-benzamide] | ≤ 16.9 | ≤ 13.6 |
| ≤ 1.75 | > 100 | NCc1ccc(C(=O)Nc2ccc(Nc3nc(-c4cccc5c4oc4ccccc45)cc4ccnn34)cc2)cn1 [Example 29, 6-Aminomethyl-N-[4-(5-dibenzofuran-4-yl-pyrazolo[1,5-c]pyrimidin-7-ylamino)-phenyl]-nicotinamide] | ≤ 16.9 | ≤ 13.6 |
| ≤ 1.75 | 6.31 to 100 | NCc1ccc(C(=O)Nc2ccc(Nc3nc(-c4cccc5c4oc4ccccc45)cc4ccnn34)cc2)nc1 [Example 65, 5-Aminomethyl-pyridine-2-carboxylic acid [4-(5-dibenzofuran-4-yl-pyrazolo[1,5-c]pyrimidin-7-ylamino)-phenyl]-amide] | ≤ 16.9 | ≤ 13.6 |
| ≤ 1.75 | 6.31 to 100 | O=C(Nc1cccc(Nc2nc(-c3cccc4c3oc3ccccc34)cc3ccnn23)c1)c1ccc2c(c1)CNCC2 [Example 34, 1,2,3,4-Tetrahydro-isoquinoline-7-carboxylic acid [3-(5-dibenzofuran-4-yl-pyrazolo[1,5-c]pyrimidin-7-ylamino)-phenyl]-amide] | ≤ 16.9 | ≤ 13.6 |
| ≤ 1.75 | > 100 | O=C(Nc1ccc(Nc2nc(-c3cccc4c3oc3ccccc34)cc3ccnn23)cc1)c1ccc2c(c1)CNCC2 [Example 35, 1,2,3,4-Tetrahydro-isoquinoline-7-carboxylic acid [4-(5-dibenzofuran-4-yl-pyrazolo[1,5-c]pyrimidin-7-ylamino)-phenyl]-amide] | ≤ 16.9 | ≤ 13.6 |
| ≤ 1.75 | > 100 | NCCc1ccc(C(=O)Nc2ccc(Nc3nc(-c4cccc5c4oc4ccccc45)cc4ccnn34)cc2)cc1 [Example 23, 4-(2-Amino-ethyl)-N-[4-(5-dibenzofuran-4-yl-pyrazolo[1,5-c]pyrimidin-7-ylamino)-phenyl]-benzamide] | ≤ 16.9 | ≤ 13.6 |
| ≤ 1.75 | > 100 | NCc1ccc(C(=O)Nc2ccc(Nc3nc(-c4ccc(-c5ccccc5)cc4)cc4ccnn34)cc2)cc1 [Example 1, 4-Aminomethyl-N-[4-(5-biphenyl-4-yl-pyrazolo[1,5-c]pyrimidin-7-ylamino)-phenyl]-benzamide] | ≤ 16.9 | ≤ 13.6 |
| ≤ 1.75 | 6.31 to 100 | NCc1ccc(C(=O)Nc2ccc(Nc3nc(-c4ccc(-c5cccc(F)c5)cc4)cc4ccnn34)cc2)cc1 [Example 70, 4-Aminomethyl-N-{4-[5-(3′-fluoro-biphenyl-4-yl)-pyrazolo[1,5-c]pyrimidin-7-ylamino]-phenyl}-benzamide] | ≤ 16.9 | ≤ 13.6 |
| ≤ 1.75 | > 100 | COc1ccc(-c2ccc(-c3cc4ccnn4c(Nc4ccc(NC(=O)c5ccc(CN)cc5)cc4)n3)cc2)cc1 [Example 55, 4-Aminomethyl-N-{4-[5-(4′-methoxy-biphenyl-4-yl)-pyrazolo[1,5-c]pyrimidin-7-ylamino]-phenyl}-benzamide] | ≤ 16.9 | ≤ 13.6 |
| ≤ 1.75 | > 100 | NCC(C(=O)Nc1cccc(Nc2nc(-c3cccc4c3oc3ccccc34)cc3ccnn23)c1)c1ccc(Cl)c(Cl)c1 (racemic) [Example 41, rac-3-Amino-N-[3-(5-dibenzofuran-4-yl-pyrazolo[1,5-c]pyrimidin-7-ylamino)-phenyl]-2-(3,4-dichloro-phenyl)-propionamide] | ≤ 16.9 | ≤ 13.6 |
| ≤ 1.75 | > 100 | O=C(Nc1ccc(Nc2nc(-c3cccc4c3oc3ccccc34)cc3ccnn23)cc1)c1ccc2c(c1)CCNC2 [Example 58, 1,2,3,4-Tetrahydro-isoquinoline-6-carboxylic acid [4-(5-dibenzofuran-4-yl-pyrazolo[1,5-c]pyrimidin-7-ylamino)-phenyl]-amide] | ≤ 16.9 | ≤ 13.6 |
| ≤ 1.75 | > 100 | NCc1ccc(C(=O)Nc2cccc(Nc3nc(-c4cccc5c4oc4ccccc45)cc4ccnn34)c2)c(F)c1 [Example 27, 4-Aminomethyl-N-[3-(5-dibenzofuran-4-yl-pyrazolo[1,5-c]pyrimidin-7-ylamino)-phenyl]-2-fluoro-benzamide] | ≤ 16.9 | ≤ 13.6 |
| ≤ 1.75 | > 100 | COCCOc1ccc2cc(-c3cc4ccnn4c(Nc4ccc(NC(=O)c5ccc(CN)cc5)cc4)n3)ccc2c1 [Example 47, 4-Aminomethyl-N-(4-{5-[6-(2-methoxy-ethoxy)-naphthalen-2-yl]-pyrazolo[1,5-c]pyrimidin-7-ylamino}-phenyl)-benzamide] | ≤ 16.9 | ≤ 13.6 |
| ≤ 1.75 | > 100 | NCc1ccc(C(=O)Nc2ccc(Nc3nc(-c4cccc5c4oc4ccccc45)cc4ccnn34)cc2)o1 [Example 38, 5-Aminomethyl-furan-2-carboxylic acid [4-(5-dibenzofuran-4-yl-pyrazolo[1,5-c]pyrimidin-7-ylamino)-phenyl]-amide] | ≤ 16.9 | ≤ 13.6 |
| ≤ 1.75 | 6.31 to 100 | COc1ccccc1-c1ccc(-c2cc3ccnn3c(Nc3ccc(NC(=O)c4ccc(CN)cc4)cc3)n2)cc1 [Example 56, 4-Aminomethyl-N-{4-[5-(2′-methoxy-biphenyl-4-yl)-pyrazolo[1,5-c]pyrimidin-7-ylamino]-phenyl}-benzamide] | ≤ 16.9 | ≤ 13.6 |
| ≤ 1.75 | > 100 | CNCc1ccc(C(=O)Nc2ccc(Nc3nc(-c4cccc5c4oc4ccccc45)cc4ccnn34)cc2)cc1 [Example 33, N-[4-(5-Dibenzofuran-4-yl-pyrazolo[1,5-c]pyrimidin-7-ylamino)-phenyl]-4-methylaminomethyl-benzamide] | ≤ 16.9 | ≤ 13.6 |
| ≤ 1.75 | 6.31 to 100 | CNCc1ccc(C(=O)Nc2cccc(Nc3nc(-c4cccc5c4oc4ccccc45)cc4ccnn34)c2)cc1 [Example 32, N-[3-(5-Dibenzofuran-4-yl-pyrazolo[1,5-c]pyrimidin-7-ylamino)-phenyl]-4-methylaminomethyl-benzamide] | ≤ 16.9 | ≤ 13.6 |
